According to patent US20110104713A1, “PRODUCTS AND PROCESSES FOR MODULATING PEPTIDE-PEPTIDE BINDING DOMAIN INTERACTIONS” (priority 2002, published 2011):
Values belong to the compound of their own block, whether it stands above or below them. Non-standard residues stand in square brackets, D forms with d. Residues, ends and D or L forms follow the SMILES beside them. No end group written: not given here. pT = C[C@@H](OP(=O)(O)O)[C@H](N)C(=O)O; pS = N[C@@H](COP(=O)(O)O)C(=O)O

Key:
Assay type in all cases: binding
[1] = biological target: T1, Plk-1 PBD (residues 326-603) (Homo sapiens, UniProt P53350); test: Isothermal titration calorimetry of peptides with Plk-1 PBD; conditions: for peptide binding to Plk-1 PBD by ITC (in words): no detectable binding for a Plk1 PBD concentration of at least 150 μM
T1 construct: sample cell containing 15 μM Plk-1 PBD (residues 326-603); GST (N, cleaved yes); made in house; host or cells: E. coli BL21
Experimental: For deletion mapping of the PBD, C-terminal fragments of Plk-1 were generated by PCR and cloned into the EcoRI and XhoI sites of pcDNA3.1 (Invitrogen). For production of recombinant PBD as a GST fusion in bacteria, the 326-603 fragment of Plk-1 was ligated into the EcoRI and XhoI sites of pGEX-4T (Pharmacia), transformed into BL21, and induced in late log-phase cells at 37° C. for 3.5 hours in the presence of 0.4 mM IPTG. For measurements of peptide binding affinity by ITC, GST-Plk-1 (326-603) was isolated from bacterial lysates using glutathione agarose, cleaved from GST using thrombin (10 U/mL), and purified by anion exchange chromatography (Q Sepharose HP, Pharmacia).
Peptides were synthesized by solid phase technique with two C-terminal lysines to enhance solubility, purified by reverse phase HPLC following deprotection, and confirmed by MALDI-TOF 9 Matrix-assisted laser desorption/ionisation-time of flight mass spectrometry. Some peptides contained an additional tyrosine residue to facilitate concentration determination by optical absorbance. calorimetry measurements were performed using a VP-ITC microcalorimeter (MicroCal Inc., Studio City, Calif.). Experiments involved 10 μL injections of peptide solutions (150 μM-180 μM) into a sample cell containing 15 μM Plk-1 PBD (residues 326-603) in 50 mM Tris/HCl (pH 8.1), 200 mM NaCl, 2 mM TCEP. Thirty injections were performed with a spacing of 240 s and a reference power of 25 μCal/s. Binding isotherms were plotted and analyzed using Origin Software (MicroCal Inc. Studio City, Calif.).
Peptides were synthesized by solid phase technique with two C-terminal lysines to enhance solubility. Some peptides contained an additional tyrosine residue to facilitate concentration determination by optical absorbance. Isothermal titration calorimetry was performed using a VP-ITC microcalorimeter (MicroCal Inc. Studio City, Calif.) by titration of 15-40 μM solutions of PBD proteins with 30×10 μl injections of […] peptide in a starting volume of 1.4-2.0 ml. Binding isotherms were plotted and analyzed using Origin Software (MicroCal Inc. Studio City, Calif.). Binding of in vitro translated Plk1 PBD (wild type and mutants) to bead-immobilized pTP and TP peptide libraries was performed as described previously (Elia et al., Science 299:1228-1231, 2003). pTP and TP indicate the peptide libraries biotin-Z-Gly-Z-Gly-Gly-Ala-X-X-B-X-pThr-Pro-X-X-X-X-Ala-Lys-Lys-Lys SEQ ID NO: 30 biotin-Z-Gly-Z-Gly-Gly-Ala-X-X-B-X-Thr-Pro-X-X-X-X-Ala-Lys-Lys-Lys SEQ ID NO: 31, respectively, where pThr is phosphothreonine, Z is aminohexanoic acid, X denotes all amino acids except Cys, and B is a biased mixture of the amino acids P, L, I, V, F, M, W.

[2] = biological target: T2, GST-Plk-1 PBD (residues 326-603) interaction with mitotic phosphoproteins (Homo sapiens, UniProt P53350); test: Peptide competition of GST-Plk-1 PBD pull-down of MPM-2 mitotic phosphoproteins from HeLa lysates; conditions: 320 μM peptide, 45 minutes at 4° C.; nocodazole-arrested HeLa lysates; listed as 7V
T2 construct: GST-Plk-1 (residues 326-603) was immobilized on glutathionine beads; made in house; host or cells: E. coli BL21
Experimental: HeLa cells were arrested in interphase or G2/M by treatment with aphidicolin (5 μg/mL) or nocodazole (50 ng/mL), respectively, for 16 hours. Cells were lysed in 25 mM Tris/HCl (pH 7.5) containing 125 mM NaCl, 0.5% NP-40, 5 mM EDTA, 2 mM DTT, 4 μg/mL pepstatin, 4 μg/mL aprotinin, 4 μg/mL leupeptin, 1 mM Na3VO4, 50 mM NaF, and […] microcystin, and 150 μgs of lysate incubated with 10 μL of glutathione agarose beads containing 2-5 μg of GST-Plk-1 (residues 326-603), GST-Pin1, or GST for 30 minutes at 4° C. Beads were washed four times with lysis buffer. Precipitated proteins were eluted in sample buffer and detected by blotting with monoclonal MPM-2 (Upstate Biotechnology, Inc.) or polyclonal anti-Cdc25C (Santa Cruz Biotechnology, Santa Cruz, Calif.). For peptide competition experiments, GST-Plk-1 (residues 326-603) was immobilized on glutathionine beads and preincubated with 320 μM of PoloBoxtide-optimal, −8T, or −7V for 45 minutes at 4° C. For binding experiments involving mutant cdc25C, HeLa cells were transfected with wild-type and mutated versions of HA-tagged Cdc25C in pECE using Superfect (Qiagen, Valencia, Calif.). Nocodazole (50 ng/mL) was added seventeen hours after transfection and cells incubated for an additional 14 hours to arrest them in G2/M. Point mutations of Cdc25C were constructed using the QuickChange site-directed mutagenesis system (Stratagene) and verified by DNA sequencing.

[3] = biological target: T3, GST-BRCA1 BRCT domains (residues 1634-1863) (Homo sapiens, UniProt P38398); test: Isothermal titration calorimetry of peptides with BRCA1 tandem BRCT domains
T3 construct: 15 μM GST-BRCA1 BRCT domains (residues 1634-1863); made in house; host or cells: E. coli DH5a
Description: (§1) For deletion mapping of the PTIP and BRCA1 BRCT phospho-binding region and for expression of MDC 1, 53BP1 and Rad9 (FIG. 17-18), fragments were generated by PCR for in vitro transcription/translation and cloned into a pcDNA3.1 expression vector (Invitrogen, San Diego, Calif.). For production of recombinant GST-PTIP BRCT domains and GSTBRCA1 BRCT domains, residues 550-757 of PTIP and residues 1634-1863 of BRCA1 were ligated into the EcoRI and NotI sites of pGEX-4T1 (Pharmacia, Peapack, N.J.) and subsequently transformed into DH5a E. Coli. Protein induction occurred at 37° C. for 4 hours or at 25° C. for 16 hours in the presence of 0.4 mM IPTG. For peptide filter blot analysis and measurements of peptide binding affinity by ITC, GSTPTIP BRCT domains (residues 550-757) and GST-BRCA1 BRCT domains (residues 1634-1863) were isolated from bacterial lysates using glutathione agarose, eluted with 40 mM glutathione, and dialyzed into 50 mM Tris/HCl (pH 8.1), 300 mM NaCl. The GFP-PTIP constructs FL (residues 1-757), !BRCT (residues 1-550), or (BRCT)2 (residues 550-757) were cloned into the EcoRI and SalI sites of the pEGFP-C2 (BD Biosciences Clontech Franklin Lakes, N.J.) expression vector.
(§2) Peptides were synthesized by solid phase technique with three C-terminal lysines to enhance solubility. The peptides were then purified by reverse phase HPLC following deprotection and confirmed by MALDI-TOF mass spectrometry. Calorimetry measurements were performed using a VP-ITC microcalorimeter (MicroCal Inc., Studio City, Calif.). Experiments involved serial 10 μL injections of peptide solutions (20 μM-150 μM) into a sample cell containing 15 μM GST-PTIP BRCT domains (residues 550-757) or 15 μM GST-BRCA1 BRCT domains (residues 1634-1863) in 50 mM Tris/HCl (pH 8.1), 300 mM NaCl. Twenty injections were performed with 240 second intervals between injections and a reference power of 25 μCal/s. Binding isotherms were plotted and analyzed using ORIGIN Software (MicroCal Inc. Studio City, Calif.).

[4] = biological target: T4, GST-PTIP BRCT domains (residues 550-757) (Homo sapiens, UniProt Q6ZW49); test: Isothermal titration calorimetry of peptides with PTIP tandem BRCT domains; conditions: for Kd: ITC, PTIP (BRCT)2 domain
T4 construct: 15 μM GST-PTIP BRCT domains (residues 550-757); made in house; host or cells: E. coli DH5a
Description: as §1, §2

T1 sequence (P53350 326-603): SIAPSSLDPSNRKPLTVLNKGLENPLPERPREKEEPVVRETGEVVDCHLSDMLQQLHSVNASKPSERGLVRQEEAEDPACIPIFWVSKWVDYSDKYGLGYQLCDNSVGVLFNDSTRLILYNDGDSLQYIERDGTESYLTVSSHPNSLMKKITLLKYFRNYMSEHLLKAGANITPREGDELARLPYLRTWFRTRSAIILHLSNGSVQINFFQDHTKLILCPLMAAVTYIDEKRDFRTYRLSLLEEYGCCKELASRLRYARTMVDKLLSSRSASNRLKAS
T4 sequence (Q6ZW49 862-1069): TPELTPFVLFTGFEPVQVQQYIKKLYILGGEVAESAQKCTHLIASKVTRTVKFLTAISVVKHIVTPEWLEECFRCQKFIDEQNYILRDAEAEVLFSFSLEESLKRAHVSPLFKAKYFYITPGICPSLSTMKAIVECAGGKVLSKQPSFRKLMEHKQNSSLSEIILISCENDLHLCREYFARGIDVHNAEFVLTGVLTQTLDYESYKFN
T3 sequence (P38398 1634-1863): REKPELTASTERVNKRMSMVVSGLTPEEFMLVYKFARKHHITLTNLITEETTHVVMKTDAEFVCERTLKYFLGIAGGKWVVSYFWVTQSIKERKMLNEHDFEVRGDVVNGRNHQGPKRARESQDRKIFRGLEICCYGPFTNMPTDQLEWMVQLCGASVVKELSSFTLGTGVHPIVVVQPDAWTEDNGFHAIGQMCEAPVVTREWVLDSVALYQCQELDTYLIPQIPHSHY
T2 sequence (P53350 326-603): as the sequence (P53350 326-603) above

Compound: CSCC[C@H](NC(=O)[C@@H]1CCCN1C(=O)CNC(=O)[C@H](C)NC(=O)[C@@H](N)CCSC)C(=O)N[C@@H](CCC(N)=O)C(=O)N[C@@H](CO)C(=O)N[C@H](C(=O)N1CCC[C@H]1C(=O)N[C@@H](CC(C)C)C(=O)N[C@@H](CC(N)=O)C(=O)NCC(=O)N[C@@H](C)C(=O)N[C@@H](CCCCN)C(=O)N[C@@H](CCCCN)C(=O)O)[C@@H](C)OP(=O)(O)O [PoloBoxtide-optimal, MAGPMQ-S-pT-P-LNGAKK] (H-MAGPMQS[pT]PLNGAKK-OH)
Kd [1]: 280 nM

effect of peptide pre-incubation on GST-Plk-1 PBD binding of MPM-2 epitopes [2]: had no effect
Compound: PoloBoxtide-7V: phosphopeptide whose serine at pThr-1 was mutated to valine (SEQ ID NO:67) (MAGPMQV[pT]PLNGAKK)

peptide binding to Plk-1 PBD by ITC (in words) [1]: abolish Plk1 PBD/peptide binding
Compound: PoloBoxtide-7C: mutated version of the optimal peptide, Cys at pT-1 (SEQ ID NO:70) (MAGPMQC[pT]PLNGAYKK)

Kd ([3]; ITC, BRCT domains of BRCA1, text, read-out: dissociation constant): 400 nM
Kd [4]: 280 nM
Compound: CC[C@H](C)[C@H](NC(=O)[C@H](CC(=O)O)NC(=O)[C@H](Cc1ccc(O)cc1)NC(=O)[C@H](C)NC(=O)[C@H](C)NC(=O)CN)C(=O)N[C@@H](COP(=O)(O)O)C(=O)N[C@@H](CCC(N)=O)C(=O)N[C@H](C(=O)N[C@@H](Cc1ccccc1)C(=O)N1CCC[C@H]1C(=O)N[C@@H](Cc1ccccc1)C(=O)N[C@@H](C)C(=O)N[C@@H](CCCCN)C(=O)N[C@@H](CCCCN)C(=O)N[C@@H](CCCCN)C(=O)O)C(C)C [BRCTtide-7pS] (H-GAAYDI[pS]QVFPFAKKK-OH; N-terminus and C-terminus assumed)

peptide binding to Plk-1 PBD by ITC (in words) [1]: abolish Plk1 PBD/peptide binding
Compound: PoloBoxtide-7G: mutated version of the optimal peptide, Gly at pT-1 (SEQ ID NO:69) (MAGPMQG[pT]PLNGAYKK)

Kd [4]: 14300 nM
Compound: CC[C@H](C)[C@H](NC(=O)[C@H](CC(=O)O)NC(=O)[C@H](Cc1ccc(O)cc1)NC(=O)[C@H](C)NC(=O)[C@H](C)NC(=O)CN)C(=O)N[C@H](C(=O)N[C@@H](CCC(N)=O)C(=O)N[C@H](C(=O)N[C@@H](Cc1ccccc1)C(=O)N1CCC[C@H]1C(=O)N[C@@H](Cc1ccccc1)C(=O)N[C@@H](C)C(=O)N[C@@H](CCCCN)C(=O)N[C@@H](CCCCN)C(=O)N[C@@H](CCCCN)C(=O)O)C(C)C)[C@@H](C)OP(=O)(O)O [BRCTtide-7pT] (H-GAAYDI[pT]QVFPFAKKK-OH; N-terminus and C-terminus assumed)

Kd (N.D.B.) ([3]; BRCA1, N.D.B = no detectable binding by ITC, tandem BRCT domain concentration of at least 150 μM): N.D.B.
Kd (N.D.B.) ([4]; PTIP, N.D.B = no detectable binding by ITC, tandem BRCT domain concentration of at least 150 μM): N.D.B.
Compound: GAAYDISQVFPFAKKK [BRCTtide-7S]

peptide binding to Plk-1 PBD by ITC (in words) [1]: abolish Plk1 PBD/peptide binding
Compound: PoloBoxtide-7T: mutated version of the optimal peptide, Thr at pT-1 (SEQ ID NO:71) (MAGPMQT[pT]PLNGAYKK)

peptide binding to Plk-1 PBD by ITC (in words) [1]: abolish Plk1 PBD/peptide binding
Compound: PoloBoxtide-7A: mutated version of the optimal peptide, Ala at pT-1 (SEQ ID NO:68) (MAGPMQA[pT]PLNGAYKK)
